Read-outs that look alike come from different tables or passages of the source. Starred links: 1 amine or outer side, 2 acyl side, 3 side chain; linkers in the order of their positions; H or OH if unused. Non-standard residues stand in square brackets, D forms with d. Groups on a side chain read outwards from the residue. No end group written: not given here. *: point of attachment. C20 diacid = O=C(O)CCCCCCCCCCCCCCCCCCC(=O)*; C18 diacid = O=C(O)CCCCCCCCCCCCCCCCC(=O)*; αMePhe(2-F) = C[C@](N)(Cc1ccccc1F)C(=O)O; γGlu = O=C(O)[C@H](CCC(=O)[*:2])N[*:1]; αMe4Pal = C[C@](N)(Cc1ccncc1)C(=O)O; αMeY = C[C@](N)(Cc1ccc(O)cc1)C(=O)O; 4Pal = N[C@@H](Cc1ccncc1)C(=O)O; αMeL = CC(C)C[C@](C)(N)C(=O)O; αMeS = C[C@](N)(CO)C(=O)O; Orn = NCCC[C@H](N)C(=O)O; AEEA = NCCOCCOCC(=O)O; Aib = CC(C)(N)C(=O)O
What was measured:
Format in all cases: cell-based
[1] = molecular target: T1, hGLP-1R (Homo sapiens, UniProt P43220); assay: Functional cAMP activation in the presence of 0.1% casein (no HSA); details: read-out: Relative cAMP EC50, hGLP-1R;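 also: intracellular cAMP rise after 30 min at 37 °C read by HTRF, normalized between buffer only (0%) and maximal control ligand (100%), four-parameter variable-slope fit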
T1 sequence (P43220 24-463): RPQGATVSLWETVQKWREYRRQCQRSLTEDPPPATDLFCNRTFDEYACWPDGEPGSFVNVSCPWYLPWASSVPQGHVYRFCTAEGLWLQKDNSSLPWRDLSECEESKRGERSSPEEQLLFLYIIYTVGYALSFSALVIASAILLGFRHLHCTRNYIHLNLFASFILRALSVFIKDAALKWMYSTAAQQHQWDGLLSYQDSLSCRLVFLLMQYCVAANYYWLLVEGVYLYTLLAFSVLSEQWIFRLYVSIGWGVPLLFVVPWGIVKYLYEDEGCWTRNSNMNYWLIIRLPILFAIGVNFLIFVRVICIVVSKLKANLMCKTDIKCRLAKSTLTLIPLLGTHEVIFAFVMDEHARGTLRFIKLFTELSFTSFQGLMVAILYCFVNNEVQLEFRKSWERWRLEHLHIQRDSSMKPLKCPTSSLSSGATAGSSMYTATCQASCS

[2] = molecular target: T1, hGLP-1R; assay: Functional cAMP activity in the presence of 1% HSA; details: read-out: cAMP Rel EC50, hGLP-1R
[3] = molecular target: human GcgR (Homo sapiens, UniProt P47871); assay: Functional cAMP activity in the presence of 1% HSA; details: read-out: cAMP Rel EC50, hGcgR
human GcgR, sequence (P47871 26-477): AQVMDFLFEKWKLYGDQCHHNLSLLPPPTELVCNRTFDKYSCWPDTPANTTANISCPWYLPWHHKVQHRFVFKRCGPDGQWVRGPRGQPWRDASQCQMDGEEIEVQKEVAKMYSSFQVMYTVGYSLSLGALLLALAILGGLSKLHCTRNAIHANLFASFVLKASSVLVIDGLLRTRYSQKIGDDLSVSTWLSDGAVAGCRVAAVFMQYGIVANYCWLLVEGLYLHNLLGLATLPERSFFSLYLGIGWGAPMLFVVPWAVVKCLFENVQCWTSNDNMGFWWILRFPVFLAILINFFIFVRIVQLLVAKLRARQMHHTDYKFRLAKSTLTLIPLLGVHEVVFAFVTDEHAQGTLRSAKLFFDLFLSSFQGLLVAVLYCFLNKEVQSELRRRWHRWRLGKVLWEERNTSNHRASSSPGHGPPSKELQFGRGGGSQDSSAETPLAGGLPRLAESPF

[4] = molecular target: T2, hGIPR (Homo sapiens, UniProt P48546); assay: Functional cAMP activation in the presence of 0.1% casein (no HSA); details: read-out: Relative cAMP EC50, hGIPR;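 also: intracellular cAMP rise after 30 min at 37 °C read by HTRF against a standard curve, scaled between buffer alone (0%) and top control ligand concentration (100%), four-parameter fit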
T2 sequence (P48546 22-466): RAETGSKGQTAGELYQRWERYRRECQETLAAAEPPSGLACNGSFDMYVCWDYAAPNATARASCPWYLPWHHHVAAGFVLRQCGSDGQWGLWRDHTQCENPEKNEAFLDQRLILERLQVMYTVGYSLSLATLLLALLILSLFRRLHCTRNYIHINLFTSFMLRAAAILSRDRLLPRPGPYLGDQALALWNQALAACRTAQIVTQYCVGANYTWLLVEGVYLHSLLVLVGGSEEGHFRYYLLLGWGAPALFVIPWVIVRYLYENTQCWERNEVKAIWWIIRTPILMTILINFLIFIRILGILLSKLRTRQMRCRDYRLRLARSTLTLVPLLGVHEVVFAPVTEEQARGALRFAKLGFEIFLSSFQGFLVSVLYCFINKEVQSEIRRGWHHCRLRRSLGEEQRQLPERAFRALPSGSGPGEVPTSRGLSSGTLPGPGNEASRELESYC

[5] = molecular target: T2, hGIPR; assay: Functional cAMP activity in the presence of 1% HSA; details: read-out: cAMP Rel EC50, hGIPR
[6] = molecular target: hGcgR (Homo sapiens, UniProt P47871); assay: Functional cAMP activation in the presence of 0.1% casein (no HSA); details: read-out: Relative cAMP EC50, hGcgR;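 also: intracellular cAMP rise after 30 min at 37 °C, read by HTRF against a cAMP standard curve, scaled from buffer only (0%) to maximal control ligand response (100%)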
hGcgR, sequence (P47871 26-477): as the sequence (P47871 26-477) above

[7] = in the presence of 0.1% casein (no HSA), geometric mean
[8] = 0.1% casein, no HSA, geometric mean

EC50 [1, 7] [nM] | EC50 [2] [nM] | EC50 [3] [nM] | EC50 [4, 7] [nM] | EC50 [5] [nM] | EC50 [6, 7] [nM] | EC50 [1, 8] [nM] | EC50 [4, 8] [nM] | EC50 [6, 8] [nM] | Substance | EC50 [1] [nM] | EC50 [4] [nM] | EC50 [6] [nM]
4.4 | 1060 | 1410 | 0.164 | 20.7 | 5.74 | – | – | – | H-Y[Aib]QGTFTSDYSI[αMeL]LDKIAAK([AEEA-AEEA-γGlu-C20 diacid])QFVEWLLA[Aib]GPSSGEPPPSEG-NH2 [Example 324] | – | – | –
0.419 | 62 | 2130 | 0.347 | 71.3 | 10.2 | – | – | – | H-Y[Aib]QGTFTSDYSK[αMeL]LDKK([AEEA-γGlu-C20 diacid])AQQAFVQWLIE[dA]GPSSGEPPPSEG-NH2 [Example 342] | – | – | –
– | 39.1 | 185 | – | 0.522 | – | 0.379 | 0.0067 | 1.98 | H-Y[Aib]QGT[αMePhe(2-F)]TSD[4Pal][αMeS]I[αMeL]LD[Orn]K([γGlu-γGlu-C18 diacid])AQ[αMe4Pal]EFI[dE][αMeY]LIEGGPPS[Aib][Orn]PPP[Orn]SE-NH2 [Example 1228] | – | – | –
– | 57.4 | 215 | – | 0.759 | – | 0.51 | 0.00725 | 2.02 | H-Y[Aib]QGT[αMePhe(2-F)]TSD[4Pal][αMeS]I[αMeL]LD[Orn]K([AEEA-γGlu-C18 diacid])AQ[αMe4Pal]EFI[dE][αMeY]LIEGGPPS[Aib][Orn]PPPEGE-NH2 [Example 1194] | – | – | –

Substance | EC50 [1, 7] [nM] | EC50 [2] [nM] | EC50 [3] [nM] | EC50 [4, 7] [nM] | EC50 [5] [nM] | EC50 [6, 7] [nM] | EC50 [1, 8] [nM] | EC50 [4, 8] [nM] | EC50 [6, 8] [nM] | EC50 [1] [nM] | EC50 [4] [nM] | EC50 [6] [nM]
Y[Aib]QGT[αMePhe(2-F)]TSD[4Pal]SI[αMeL]LD[Orn]K([AEEA-γGlu-C18 diacid])AQ[αMe4Pal]EFI[dE][αMeY]LIEGGPSSGAPPPSGE-NH2 [Example 614] | – | 33.2 | 724 | – | 0.597 | – | – | – | – | 0.251 | 0.0065 | 6.36
H-Y[Aib]QGT[αMePhe(2-F)]TSD[4Pal]SILLDKK([γGlu-γGlu-C18 diacid])AQ[Aib]AFIEYLEEGGPSSGAPPPEGTE-NH2 [Example 659] | – | 81.5 | 735 | – | 5.75 | – | – | – | – | 1.31 | 0.0673 | 5.89
H-Y[Aib]QGTFTSD[4Pal][αMeS]I[αMeL]LD[Orn]K([dE-γGlu-C18 diacid])AQ[αMe4Pal]QFIQ[αMeY]LIE[Aib]GPSSGAPPPSGGGE-NH2 [Example 1136] | 0.453 | 39.2 | 121 | 0.0131 | 0.949 | 1.26 | – | – | – | – | – | –
